PubChem BioAssay AID256 (DTP/NCI, 2004)
“And” between values parts separate entries of the source, which are not always exact repeats. Equal values may be shown once. Toxic doses and inconclusive results are not listed.

System: CD2F1 mice, L1210 leukemia ip, survival T/C
Experiment: NCI In Vivo Anticancer Drug Screen. Data for tumor model L1210 Leukemia (intraperitoneal) in CD2F1 (CDF1) mice
Conditions: higher = longer survival
Procedure, shortened: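 Tumor-bearing mice (transplanted tumor) were split into treated and vehicle control groups, and the measured endpoint of each treated group was divided by that of its vehicle controls.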

[1] = endpoint: mean survival time, dose: 6.25 mg/kg/injection, schedule: Q04DX003 (ip), vehicle: distilled water + Tween-80
[2] = endpoint: mean survival time, dose: 12.5 mg/kg/injection, schedule: Q04DX003 (ip), vehicle: distilled water + Tween-80
[3] = endpoint: mean survival time, dose: 25.0 mg/kg/injection, schedule: Q04DX003 (ip), vehicle: distilled water + Tween-80
[4] = endpoint: mean survival time, dose: 50.0 mg/kg/injection, schedule: Q04DX003 (ip), vehicle: distilled water + Tween-80
[5] = endpoint: mean survival time, dose: 100.0 mg/kg/injection, schedule: Q04DX003 (ip), vehicle: distilled water + Tween-80
[6] = endpoint: mean survival time, dose: 50.0 mg/kg/injection, schedule: Q01DX009 (ip), vehicle: Klucel (hydroxypropylcellulose) (HPC)
[7] = endpoint: mean survival time, dose: 100.0 mg/kg/injection, schedule: Q01DX009 (ip), vehicle: Klucel (hydroxypropylcellulose) (HPC)
[8] = endpoint: mean survival time, dose: 100.0 mg/kg/injection, schedule: Q01DX009 (ip), vehicle: saline with Tween-80
[9] = endpoint: mean survival time, dose: 200.0 mg/kg/injection, schedule: Q01DX009 (ip), vehicle: saline with Tween-80
[10] = endpoint: mean survival time, dose: 400.0 mg/kg/injection, schedule: Q01DX009 (ip), vehicle: saline with Tween-80
[11] = endpoint: mean survival time, dose: 100.0 mg/kg/injection, schedule: Q04DX003 (ip), vehicle: saline with Tween-80
[12] = endpoint: mean survival time, dose: 200.0 mg/kg/injection, schedule: Q04DX003 (ip), vehicle: saline with Tween-80
[13] = endpoint: mean survival time, dose: 400.0 mg/kg/injection, schedule: Q04DX003 (ip), vehicle: saline with Tween-80
[14] = endpoint: mean survival time, dose: 75.0 mg/kg/injection, schedule: Q01DX001 (ip), vehicle: saline
[15] = endpoint: mean survival time, dose: 150.0 mg/kg/injection, schedule: Q01DX001 (ip), vehicle: saline
[16] = endpoint: mean survival time, dose: 200.0 mg/kg/injection, schedule: Q01DX001 (ip), vehicle: saline with Tween-80
[17] = endpoint: mean survival time, dose: 400.0 mg/kg/injection, schedule: Q01DX001 (ip), vehicle: saline with Tween-80

CN(C)C1=NC1(C)C.CN(C)C1=NC1(C)C.[Cl][Pd][Cl]
T/C (endpoint: mean survival time, dose: 3.13 mg/kg/injection, schedule: Q04DX003 (ip), vehicle: distilled water + Tween-80): 96 % of control | T/C [1]: 101 % of control | T/C [2]: 96 % of control | T/C [3]: 105 % of control | T/C [4]: 101 % of control | T/C [5]: 114 % of control

O=C(Nc1ccc(N=C=S)cc1Cl)c1cc(Cl)cc(Cl)c1O
T/C (endpoint: mean survival time, dose: 6.25 mg/kg/injection, schedule: Q01DX009 (ip), vehicle: Klucel (hydroxypropylcellulose) (HPC)): 91 % of control and 104 % of control | T/C (endpoint: mean survival time, dose: 12.5 mg/kg/injection, schedule: Q01DX009 (ip), vehicle: Klucel (hydroxypropylcellulose) (HPC)): 97 % of control | T/C (endpoint: mean survival time, dose: 25.0 mg/kg/injection, schedule: Q01DX009 (ip), vehicle: Klucel (hydroxypropylcellulose) (HPC)): 96 % of control and 109 % of control | T/C [6]: 113 % of control and 103 % of control | T/C [7]: 97 % of control

[Br][Pt+2][Br].[NH-]c1cccc(I)c1.[NH-]c1cccc(I)c1
T/C (endpoint: mean survival time, dose: 3.12 mg/kg/injection, schedule: Q04DX003 (ip), vehicle: distilled water + Tween-80): 98 % of control | T/C [1]: 101 % of control | T/C [2]: 101 % of control | T/C [3]: 101 % of control | T/C [4]: 101 % of control | T/C [5]: 98 % of control | T/C (endpoint: mean survival time, dose: 200.0 mg/kg/injection, schedule: Q04DX003 (ip), vehicle: distilled water + Tween-80): 114 % of control

Cc1cc(N2CCN(C)CC2)n2nc(-c3ccc(Cl)cc3)nc2n1
T/C (endpoint: mean survival time, dose: 50.0 mg/kg/injection, schedule: Q01DX001 (ip), vehicle: Klucel (hydroxypropylcellulose) (HPC)): 120 % of control | T/C [6]: 100 % of control | T/C (endpoint: mean survival time, dose: 100.0 mg/kg/injection, schedule: Q01DX001 (ip), vehicle: Klucel (hydroxypropylcellulose) (HPC)): 95 % of control | T/C [7]: 99 % of control | T/C (endpoint: mean survival time, dose: 200.0 mg/kg/injection, schedule: Q01DX001 (ip), vehicle: Klucel (hydroxypropylcellulose) (HPC)): 93 % of control | T/C (endpoint: mean survival time, dose: 200.0 mg/kg/injection, schedule: Q01DX009 (ip), vehicle: Klucel (hydroxypropylcellulose) (HPC)): 97 % of control

Cc1ccc2nc(-c3ccc(N=Cc4ccccc4O)cc3)sc2c1
T/C (endpoint: mean survival time, dose: 12.5 mg/kg/injection, schedule: Q01DX009 (ip), vehicle: olive oil, sesame oil, peanut oil): 100 % of control | T/C (endpoint: mean survival time, dose: 25.0 mg/kg/injection, schedule: Q01DX009 (ip), vehicle: olive oil, sesame oil, peanut oil): 98 % of control | T/C (endpoint: mean survival time, dose: 50.0 mg/kg/injection, schedule: Q01DX009 (ip), vehicle: olive oil, sesame oil, peanut oil): 102 % of control | T/C (endpoint: mean survival time, dose: 100.0 mg/kg/injection, schedule: Q01DX009 (ip), vehicle: olive oil, sesame oil, peanut oil): 95 % of control | T/C (endpoint: mean survival time, dose: 200.0 mg/kg/injection, schedule: Q01DX009 (ip), vehicle: olive oil, sesame oil, peanut oil): 100 % of control | T/C (endpoint: mean survival time, dose: 400.0 mg/kg/injection, schedule: Q01DX009 (ip), vehicle: olive oil, sesame oil, peanut oil): 96 % of control

Nc1ccn(C2OC(COP(=O)(O)Oc3ccccc3)C(O)C2O)c(=O)n1 (stereo unspecified)
T/C (endpoint: mean survival time, dose: 12.5 mg/kg/injection, schedule: Q01DX009 (ip), vehicle: suspension in saline): 162 % of control | T/C (endpoint: mean survival time, dose: 25.0 mg/kg/injection, schedule: Q01DX009 (ip), vehicle: suspension in saline): 194 % of control | T/C (endpoint: mean survival time, dose: 50.0 mg/kg/injection, schedule: Q01DX009 (ip), vehicle: suspension in saline): 202 % of control | T/C (endpoint: mean survival time, dose: 100.0 mg/kg/injection, schedule: Q01DX009 (ip), vehicle: suspension in saline): 223 % of control

CC1(C)CC(O)(Cc2ccccc2)C(C)(O)c2ccccc21 (stereo unspecified)
T/C [8]: 102 % of control | T/C [9]: 88 % of control | T/C [10]: 86 % of control

O=c1[nH]cc(C(O)Cc2ccccc2)c(=O)[nH]1 (stereo unspecified)
T/C [8]: 97 % of control | T/C [11]: 104 % of control | T/C [9]: 100 % of control | T/C [12]: 94 % of control | T/C [10]: 97 % of control | T/C [13]: 98 % of control

CCn1c(C)[n+](CC)c2ccc(C(F)(F)F)cc21
T/C [14]: 94 % of control | T/C [15]: 100 % of control

CC(C)NC(=O)C1CC2c3cccc4c3C(CN4)CC2N(C)C1 (stereo unspecified)
T/C (endpoint: mean survival time, dose: 12.5 mg/kg/injection, schedule: Q04DX002 (ip), vehicle: saline with Tween-80): 98 % of control | T/C (endpoint: mean survival time, dose: 25.0 mg/kg/injection, schedule: Q04DX002 (ip), vehicle: saline with Tween-80): 95 % of control | T/C (endpoint: mean survival time, dose: 50.0 mg/kg/injection, schedule: Q04DX002 (ip), vehicle: saline with Tween-80): 98 % of control

Brc1ccc(-c2csc(Nc3nc(-c4ccc(Br)cc4)cs3)n2)cc1
T/C (endpoint: mean survival time, dose: 12.5 mg/kg/injection, schedule: Q01DX009 (ip), vehicle: saline with Tween-80): 86 % of control | T/C (endpoint: mean survival time, dose: 25.0 mg/kg/injection, schedule: Q01DX009 (ip), vehicle: saline with Tween-80): 96 % of control | T/C (endpoint: mean survival time, dose: 25.0 mg/kg/injection, schedule: Q04DX003 (ip), vehicle: saline with Tween-80): 97 % of control | T/C (endpoint: mean survival time, dose: 50.0 mg/kg/injection, schedule: Q01DX009 (ip), vehicle: saline with Tween-80): 96 % of control | T/C (endpoint: mean survival time, dose: 50.0 mg/kg/injection, schedule: Q04DX003 (ip), vehicle: saline with Tween-80): 87 % of control | T/C [11]: 88 % of control | T/C [13]: 92 % of control

O=C(COc1ccc(Cl)cc1)C1CSc2c(Cl)ccc(Cl)c21 (stereo unspecified)
T/C [11]: 92 % of control | T/C [12]: 98 % of control | T/C [13]: 101 % of control

O=C(O)/C=N/NS(=O)(=O)Cc1ccccc1
T/C (endpoint: mean survival time, dose: 12.5 mg/kg/injection, schedule: Q04DX003 (ip), vehicle: other): 102 % of control | T/C (endpoint: mean survival time, dose: 25.0 mg/kg/injection, schedule: Q04DX003 (ip), vehicle: other): 113 % of control | T/C (endpoint: mean survival time, dose: 50.0 mg/kg/injection, schedule: Q04DX003 (ip), vehicle: other): 117 % of control | T/C (endpoint: mean survival time, dose: 100.0 mg/kg/injection, schedule: Q04DX003 (ip), vehicle: other): 117 % of control | T/C (endpoint: mean survival time, dose: 200.0 mg/kg/injection, schedule: Q04DX003 (ip), vehicle: other): 122 % of control | T/C (endpoint: mean survival time, dose: 400.0 mg/kg/injection, schedule: Q04DX003 (ip), vehicle: other): 111 % of control

O=C(O)C/C=C/Br
T/C [14]: 100 % of control | T/C [15]: 100 % of control

Cc1cn(C2CC(O)C(CO)O2)c(=O)nc1NCC12CC3CC(CC(C3)C1)C2 (stereo unspecified)
T/C (endpoint: median survival time, dose: 12.5 mg/kg/injection, schedule: Q01DX005 (ip), vehicle: distilled water + Tween-80): 105 % of control | T/C (endpoint: median survival time, dose: 25.0 mg/kg/injection, schedule: Q01DX005 (ip), vehicle: distilled water + Tween-80): 104 % of control | T/C (endpoint: median survival time, dose: 50.0 mg/kg/injection, schedule: Q01DX005 (ip), vehicle: distilled water + Tween-80): 102 % of control | T/C (endpoint: median survival time, dose: 100.0 mg/kg/injection, schedule: Q01DX005 (ip), vehicle: distilled water + Tween-80): 94 % of control

Nc1ccnc(Oc2ccc(Cl)cc2)n1
T/C (endpoint: mean survival time, dose: 100.0 mg/kg/injection, schedule: Q01DX001 (ip), vehicle: saline with Tween-80): 104 % of control | T/C [16]: 104 % of control | T/C [17]: 98 % of control

CCCCCCCCCCCCCCCOc1ccc(OCCCCCCCCCCCCCC)cc1
T/C [16]: 89 % of control | T/C [17]: 88 % of control

CCCCCCCCCCNCCC(=O)O
T/C (endpoint: mean survival time, dose: 37.5 mg/kg/injection, schedule: Q04DX003 (ip), vehicle: saline): 97 % of control | T/C (endpoint: mean survival time, dose: 75.0 mg/kg/injection, schedule: Q04DX003 (ip), vehicle: saline): 94 % of control | T/C (endpoint: mean survival time, dose: 150.0 mg/kg/injection, schedule: Q04DX003 (ip), vehicle: saline): 97 % of control

CCCC(=O)OC1C2OP(=O)(O)OCC2OC1n1c(=S)[nH]c2c(N)ncnc21 (stereo unspecified)
T/C (endpoint: mean survival time, dose: 6.25 mg/kg/injection, schedule: Q01DX005 (ip), vehicle: water): 93 % of control | T/C (endpoint: mean survival time, dose: 12.5 mg/kg/injection, schedule: Q01DX005 (ip), vehicle: water): 97 % of control | T/C (endpoint: mean survival time, dose: 25.0 mg/kg/injection, schedule: Q01DX005 (ip), vehicle: water): 101 % of control | T/C (endpoint: mean survival time, dose: 50.0 mg/kg/injection, schedule: Q01DX005 (ip), vehicle: water): 93 % of control | T/C (endpoint: mean survival time, dose: 100.0 mg/kg/injection, schedule: Q01DX005 (ip), vehicle: water): 101 % of control

O=C(NCCCl)C(=O)NCCCl
T/C (endpoint: mean survival time, dose: 100.0 mg/kg/injection, schedule: Q04DX002 (ip), vehicle: saline with Tween-80): 100 % of control | T/C (endpoint: mean survival time, dose: 200.0 mg/kg/injection, schedule: Q04DX002 (ip), vehicle: saline with Tween-80): 100 % of control | T/C (endpoint: mean survival time, dose: 400.0 mg/kg/injection, schedule: Q04DX002 (ip), vehicle: saline with Tween-80): 100 % of control
